Test results: paper PMC6941952, “A homogeneous bioluminescent immunoassay to probe cellular signaling pathway regulation” (Communications Biology, 2020)
“And” between values parts separate entries of the source, which are not always exact repeats. Equal entries are not always repeated.

System: total IκBα
Experiment: NanoBiT cell-based immunoassay, total IκBα in MCF-7 cells
Design: species or system human
Conditions: for Total IkB Average / Average / IkB Average: background subtracted; for Raw data / Subtract background / Average: Figure 2d; for Average IKB (background subtracted) / Raw data IKB / Subtract reagent background IKB: 30 min, MCF-7, Fig 7a; for IkB Average / IKB Raw data / IKB Subtract reagent background: without CHX
Procedure, shortened: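 Cells were lysed in 0.1% digitonin buffer, then target protein was detected with two primary antibodies plus NanoBiT detection antibodies (90 min, 23 °C), read as luminescence minus reagent background. For pSTAT3, A431 cells were serum-starved overnight before inhibitor and stimulator. For IκBα, MCF-7 cells got inhibitor for 60 min before TNFα. IC50 came from variable-slope sigmoidal fits.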

[1] = Figure 3a and 3b, listed as TNF
[2] = No MG132, TNF 2 min, listed as TNF
[3] = No MG132, TNF 4 min, listed as TNF
[4] = No MG132, TNF 6 min, listed as TNF
[5] = No MG132, TNF 8 min, listed as TNF
[6] = No MG132, TNF 10 min, listed as TNF
[7] = No MG132, TNF 12 min, listed as TNF
[8] = No MG132, TNF 15 min, listed as TNF
[9] = No MG132, TNF 30 min, listed as TNF
[10] = TNF 0.00038147 ng/ml, listed as TNF
[11] = TNF 0.00152588 ng/ml, listed as TNF
[12] = TNF 0.00610352 ng/ml, listed as TNF
[13] = TNF 0.0244141 ng/ml, listed as TNF
[14] = TNF 0.0976562 ng/ml, listed as TNF
[15] = TNF 0.390625 ng/ml, listed as TNF
[16] = TNF 1.5625 ng/ml, listed as TNF

## TNFα
Figure 3a and 3b
  Total IkB Average: 42170
[1]
  Total IkB Raw data: 63440 and 64850 and 64790
  Total IkB Subtract reagent background: 42600 and 41250 and 42660
Cell # 3500, listed as TNF
  Raw data: 18670 and 18820
  Subtract background: 4540 and 4140
Cell # 7000, listed as TNF
  Raw data: 18660 and 18670
  Subtract background: 4530 and 3990
Cell # 14000, listed as TNF
  Raw data: 18430 and 19060
  Subtract background: 4300 and 4380
Cell # 21000
  Raw data: 19110
  Average: 4705
Cell # 21000, listed as TNF
  Subtract background: 4980 and 4430
Cell # 28000, listed as TNF
  Raw data: 20250 and 19900
  Subtract background: 6120 and 5220
Cell # 35000, listed as TNF
  Raw data: 20910 and 20760
  Subtract background: 6780 and 6080
Cell # 42000, listed as TNF
  Raw data: 21720 and 21040
  Subtract background: 7590 and 6360
Cell # 49000, listed as TNF
  Raw data: 22850 and 23430
  Subtract background: 8720 and 8750
Cell # 56000, listed as TNF
  Raw data: 23160 and 23600
  Subtract background: 9030 and 8920
Cell # 63000, listed as TNF
  Raw data: 26970 and 26330
  Subtract background: 12840 and 11650
Cell # 3500
  Average: 4340
Cell # 7000
  Average: 4260
Cell # 14000
  Average: 4340
Cell # 28000
  Average: 5670
Cell # 35000
  Average: 6430
Cell # 42000
  Average: 6975
Cell # 49000
  Average: 8735
Cell # 56000
  Average: 8975
Cell # 63000
  Average: 12245
No MG132, TNF 2 min
  Total IkB Average: 63885
[2]
  Total IkB Raw data: 78720 and 79300 and 81370 and 83380
  Total IkB Subtract reagent background: 61913 and 62493 and 64563 and 66573
No MG132, TNF 4 min
  Total IkB Average: 62935
[3]
  Total IkB Raw data: 77560 and 79450 and 81310 and 80650
  Total IkB Subtract reagent background: 60753 and 62643 and 64503 and 63843
No MG132, TNF 6 min
  Total IkB Average: 62480
[4]
  Total IkB Raw data: 79920 and 79580 and 79430 and 78220
  Total IkB Subtract reagent background: 63113 and 62773 and 62623 and 61413
No MG132, TNF 8 min
  Total IkB Average: 58228
[5]
  Total IkB Raw data: 76120 and 76190 and 73510 and 74320
  Total IkB Subtract reagent background: 59313 and 59383 and 56703 and 57513
No MG132, TNF 10 min
  Total IkB Average: 52595
[6]
  Total IkB Raw data: 72590 and 72810 and 65780 and 66430
  Total IkB Subtract reagent background: 55783 and 56003 and 48973 and 49623
No MG132, TNF 12 min
  Total IkB Average: 41533
[7]
  Total IkB Raw data: 62400 and 61420 and 53610 and 55930
  Total IkB Subtract reagent background: 45593 and 44613 and 36803 and 39123
No MG132, TNF 15 min
  Total IkB Average: 29070
[8]
  Total IkB Raw data: 51070 and 48840 and 41650 and 41950
  Total IkB Subtract reagent background: 34263 and 32033 and 24843 and 25143
No MG132, TNF 30 min
  Total IkB Average: 9615
[9]
  Total IkB Raw data: 28150 and 26460 and 25400 and 25680
  Total IkB Subtract reagent background: 11343 and 9653 and 8593 and 8873
TNF 0.00038147 ng/ml
  Average IKB (background subtracted): 68883
[10]
  Raw data IKB: 80810 and 81860 and 75990
  Subtract reagent background IKB: 70140 and 71190 and 65320
TNF 0.00152588 ng/ml
  Average IKB (background subtracted): 65947
[11]
  Raw data IKB: 78690 and 78640 and 72520
  Subtract reagent background IKB: 68020 and 67970 and 61850
TNF 0.00610352 ng/ml
  Average IKB (background subtracted): 63850
[12]
  Raw data IKB: 76470 and 76630 and 70460
  Subtract reagent background IKB: 65800 and 65960 and 59790
TNF 0.0244141 ng/ml
  Average IKB (background subtracted): 59300
[13]
  Raw data IKB: 73310 and 70780 and 65820
  Subtract reagent background IKB: 62640 and 60110 and 55150
TNF 0.0976562 ng/ml
  Average IKB (background subtracted): 52567
[14]
  Raw data IKB: 65850 and 63760 and 60100
  Subtract reagent background IKB: 55180 and 53090 and 49430
TNF 0.390625 ng/ml
  Average IKB (background subtracted): 37353
[15]
  Raw data IKB: 46770 and 47240 and 50060
  Subtract reagent background IKB: 36100 and 36570 and 39390
TNF 1.5625 ng/ml
  Average IKB (background subtracted): 21387
[16]
  Raw data IKB: 30440 and 30700 and 35030
  Subtract reagent background IKB: 19770 and 20030 and 24360
TNF 6.25 ng/ml
  Average IKB (background subtracted): 12817
TNF 6.25 ng/ml, listed as TNF
  Raw data IKB: 23480 and 22250 and 24730
  Subtract reagent background IKB: 12810 and 11580 and 14060
TNF 25 ng/ml
  Average IKB (background subtracted): 10187
TNF 25 ng/ml, listed as TNF
  Raw data IKB: 20190 and 20330 and 22050
  Subtract reagent background IKB: 9520 and 9660 and 11380
TNF 100 ng/ml
  Average IKB (background subtracted): 9587
TNF 100 ng/ml, listed as TNF
  Raw data IKB: 19860 and 20090 and 20820
  Subtract reagent background IKB: 9190 and 9420 and 10150
TNF 5 min
  IkB Average: 50908
TNF 5 min, listed as TNF
  IKB Raw data: 65320 and 61760 and 61990 and 62780
  IKB Subtract reagent background: 53265 and 49705 and 49935 and 50725
TNF 10 min
  IkB Average: 31425
TNF 10 min, listed as TNF
  IKB Raw data: 42500 and 40590 and 43600 and 47230
  IKB Subtract reagent background: 30445 and 28535 and 31545 and 35175
TNF 20 min
  IkB Average: 10930
TNF 20 min, listed as TNF
  IKB Raw data: 21120 and 20330 and 22530 and 27960
  IKB Subtract reagent background: 9065 and 8275 and 10475 and 15905
TNF 30 min
  IkB Average: 8948
TNF 30 min, listed as TNF
  IKB Raw data: 19500 and 19660 and 20770 and 24080
  IKB Subtract reagent background: 7445 and 7605 and 8715 and 12025
TNF 40 min
  IkB Average: 12565
TNF 40 min, listed as TNF
  IKB Raw data: 24080 and 23090 and 23770 and 27540
  IKB Subtract reagent background: 12025 and 11035 and 11715 and 15485
TNF 60 min
  IkB Average: 23095
TNF 60 min, listed as TNF
  IKB Raw data: 35230 and 33190 and 36060 and 36120
  IKB Subtract reagent background: 23175 and 21135 and 24005 and 24065
TNF 80 min
  IkB Average: 35000
TNF 80 min, listed as TNF
  IKB Raw data: 46920 and 46230 and 46940 and 48130
  IKB Subtract reagent background: 34865 and 34175 and 34885 and 36075
TNF 100 min
  IkB Average: 40533
TNF 100 min, listed as TNF
  IKB Raw data: 53930 and 50010 and 52000 and 54410
  IKB Subtract reagent background: 41875 and 37955 and 39945 and 42355
TNF 120 min
  IkB Average: 41718
TNF 120 min, listed as TNF
  IKB Raw data: 56260 and 53820 and 52280 and 52730
  IKB Subtract reagent background: 44205 and 41765 and 40225 and 40675
